Assay results reported in patent US20070244190A1, “Neobritannilactone B and acetyl neobritannilactone B” (priority 2006, published 2007).

Assays:
Format in all cases: cell-based, human
Bcl-XL in AGS cells = assay: Western blot of Bcl-XL expression; details: for Bcl-XL expression: various concentrations, 24 hours, FIG. 7A
Description: Western Blotting. […] The total proteins were extracted via the addition of 200 μL of gold lysis buffer (50 mM Tris-HCl, pH 7.4; 1 mM NaF; 150 mM NaCl; 1 mM EGTA; 1 mM phenylmethanesulfonyl fluoride; 1% NP-40; and 10 μg/mL leupeptin) to the cell pellets on ice for 30 min, followed by centrifugation at 10,000 g for 30 min at 4° C. The cytosolic fraction (supernatant) proteins were measured by Bio-Rad protein assay (Bio-Rad Laboratories, Munich, Germany). The samples (50 μg of protein) were mixed with 5× sample buffer containing 0.3 M Tris-HCl (pH 6.8), 25% 2-mercaptoethanol, 12% sodium dodecyl sulfate (SDS), 25 mM EDTA, 20% glycerol, and 0.1% bromophenol blue. The mixtures were boiled at 100° C. for 5 min and were subjected to 12% SDS-polyacrylamide minigels at a constant current of 20 mA. Subsequently, electrophoresis was ordinarily carried out on SDS-polyacrylamide gels. For electrophoresis, proteins on the gel were electrotransferred onto an immobile membrane (PVDF; Millipore Corp., Bedford, Mass.) with transfer buffer composed of 25 mM Tris-HCl (pH 8.9), 192 mM glycine, and 20% methanol. The membranes were blocked with blocking solution containing 20 mM Tris-HCl and then immunoblotted with primary antibodies including, anti-Bcl-XL, anti-β-actin (Transduction Laboratory, Lexington, Ky.), anti-PARP (UBI, Inc., Lake Placid, N.Y.), at room temperature for 1 h. Detection was achieved by measuring the chemiluminescence of blotting agent (ECL, Amersham Corp., Arlington Heights, Ill.), after exposure of the filters to KODAK X-OMAT films.
Several gene products are known to be important in controlling the apoptotic process. The imbalance of expression of anti- and pro-apoptotic proteins after a stimulus is one of the major mechanisms underlying the ultimate fate of cells in the apoptotic process. Bcl-XL expression in tumor cells, for instance, confers resistance against chemotherapeutic drugs. The expression of anti-apoptotic protein Bcl-XL was therefore examined in cancer cells treated with various concentrations of NAB or ANAB for 24 hours. […] FIG. 7A. […] FIG. 7B.

[1] = system: poly-(ADP-ribose) polymerase (PARP) in AGS cells; assay: Western blot of PARP cleavage; details: for PARP cleavage (85-kDa fragment): AGS cells treated for 24, FIG. 6A
Description: Western Blotting. The nuclear and cytosolic proteins were isolated from AGS cells after treatment with 60 μM for 0, 3, 6, 9, 12, 18, and 24 h. The total proteins were extracted via the addition of 200 μL of gold lysis buffer (50 mM Tris-HCl, pH 7.4; 1 mM NaF; 150 mM NaCl; 1 mM EGTA; 1 mM phenylmethanesulfonyl fluoride; 1% NP-40; and 10 μg/mL leupeptin) to the cell pellets on ice for 30 min, followed by centrifugation at 10,000 g for 30 min at 4° C. The cytosolic fraction (supernatant) proteins were measured by Bio-Rad protein assay (Bio-Rad Laboratories, Munich, Germany). The samples (50 μg of protein) were mixed with 5× sample buffer containing 0.3 M Tris-HCl (pH 6.8), 25% 2-mercaptoethanol, 12% sodium dodecyl sulfate (SDS), 25 mM EDTA, 20% glycerol, and 0.1% bromophenol blue. The mixtures were boiled at 100° C. for 5 min and were subjected to 12% SDS-polyacrylamide minigels at a constant current of 20 mA. Subsequently, electrophoresis was ordinarily carried out on SDS-polyacrylamide gels. For electrophoresis, proteins on the gel were electrotransferred onto an immobile membrane (PVDF; Millipore Corp., Bedford, Mass.) with transfer buffer composed of 25 mM Tris-HCl (pH 8.9), 192 mM glycine, and 20% methanol. The membranes were blocked with blocking solution containing 20 mM Tris-HCl and then immunoblotted with primary antibodies including, anti-Bcl-XL, anti-β-actin (Transduction Laboratory, Lexington, Ky.), anti-PARP (UBI, Inc., Lake Placid, N.Y.), at room temperature for 1 h. Detection was achieved by measuring the chemiluminescence of blotting agent (ECL, Amersham Corp., Arlington Heights, Ill.), after exposure of the filters to KODAK X-OMAT films.
Activation of caspase-3 leads to the cleavage of a number of proteins, one of which is poly-(ADP-ribose) polymerase (PARP). A hallmark of apoptosis is that PARP (116 kDa) is cleaved to produce an 85-kDa fragment. PARP cleavage was examined in cells treated with NAB or ANAB for 24.

COLO 205 cells = assay: Apoptosis (sub-G1) by flow cytometry; details: 24 h, mean ± SE
Description: (§1) Cell Culture and Chemicals. The COLO 205 and HT 29 cell lines were isolated from human colon adenocarcinoma (ATCC CCL-222 and HTB-38); human promyelocytic leukemia (HL-60) cells were obtained from American Type Culture Collection (Rockville, Md.). The human AGS gastric carcinoma cell lines (CCRC 60102) were obtained from the Food Industry Research and Development Institute (Hsinchu, Taiwan). Cell lines were grown at 37° C. in 5% CO2 dioxide atmosphere in RPMI for COLO 205, HT-29, and HL-60 cells and DMEM/F12 for AGS cells, all supplemented with 10% heat-inactivated fetal bovine serum (GIBCO BRL, Grand Island, N.Y.) (100 units/mL of penicillin, 100 μg/mL of streptomycin), and 2 mM L-glutamine (GIBCO BRL). Selected compounds were dissolved in dimethyl sulfoxide (DMSO). Propidium iodide was obtained from Sigma Chemical Co. (St. Louis, Mo.).
(§2) Flow Cytometry. Human cancer cells (2×10^5) were cultured in 60-mm Petri dishes and incubated for 24 h. The apoptotic cells (sub-G1) in the selected compounds and treated cells were measured by flow cytometry analysis. Then cells were harvested, washed with PBS, resuspended in 200 μL of PBS, and fixed in 800 μL of iced 100% ethanol at −20° C. After being left to stand overnight, the cell pellets were collected by centrifugation, resuspended in 1 mL of hypotonic buffer (0.5% Triton X-100 in PBS and 0.5 μg/mL RNase), and incubated at 37° C. for 30 min. Then 1 mL of propidium iodide solution (50 μg/mL) was added and the mixture was allowed to stand on ice for 30 min. Fluorescence emitted from the propidium iodide-DNA complex was quantitated after excitation of the fluorescent dye by FACScan cytometry (Becton Dickinson, San Jose, Calif.).
(§3) The compounds isolated from Inula were tested for their effects on the apoptotic ratio in human cancer cells.

AGS cells = assay: Apoptosis (sub-G1) by flow cytometry; details: 24 h, mean ± SE
Description: as §1, §2, §3

Row | Compound | Bcl-XL expression (Bcl-XL in AGS cells) | PARP cleavage (85-kDa fragment) [1] | apoptotic ratio (COLO 205 cells; COLO 205, 5 μM) [%] | apoptotic ratio (COLO 205 cells; COLO 205, 10 μM) [%] | apoptotic ratio (COLO 205 cells; COLO 205, 25 μM) [%] | apoptotic ratio (COLO 205 cells; COLO 205, 25 μM, listed as NAB) [%] | apoptotic ratio (COLO 205 cells; COLO 205, 50 μM) [%] | apoptotic ratio (COLO 205 cells; COLO 205, 100 μM) [%] | apoptotic ratio (AGS cells; 5 μM) [%] | apoptotic ratio (AGS cells; 10 μM) [%] | apoptotic ratio (AGS cells; 25 μM) [%] | apoptotic ratio (AGS cells; 25 μM, listed as NAB) [%] | apoptotic ratio (AGS cells; 50 μM) [%] | apoptotic ratio (AGS cells; 100 μM) [%] | Bcl-XL expression over time (Bcl-XL in AGS cells; at 12 h, 15 μM, FIG. 7B) | PARP cleavage over time ([1]; 15 μM, time course, FIG. 6B) | apoptotic ratio (COLO 205 cells; COLO 205, 25 μM, listed as ANAB) [%] | apoptotic ratio (AGS cells; 25 μM, listed as ANAB) [%]
1 | C=C1C(=O)OC2C=C(C)CCC=C(C)CC(O)C12 (stereo not drawn) [Compound 3, 4-hydroxy-3α,4,5,8,9,11α-hexahydro-6,10-dimethyl-3-methylene-cyclodeca[b]furan-2(3H)-one] | dose-dependent decrease of Bcl-XL | PARP proteolytic fragment was found | 10.73 ± 2.31 | 14.12 ± 1.06 | 41.62 ± 6.34 | 41.62 | 89.11 ± 1.47 | 96.81 ± 0.51 | 9.55 ± 3.05 | 8.66 ± 0.80 | 11.78 ± 1.40 | 11.78 | 15.95 ± 1.12 | 19.22 ± 0.57 | – | – | – | –
2 | C=C1C(=O)O[C@H]2/C=C(\C)CC/C=C(\C)C[C@H](OC(C)=O)[C@@H]12 [Compound 4, acetyl neobritannilactone B] | dose-dependent decrease of Bcl-XL | PARP proteolytic fragment was found | 15.47 ± 1.69 | 34.72 ± 2.72 | 76.87 ± 2.39 | – | 96.92 ± 0.20 | 98.66 ± 0.10 | 6.16 ± 1.17 | 7.87 ± 3.03 | 9.89 ± 4.44 | – | 13.64 ± 0.28 | 43.11 ± 0.99 | marked and significant change in the expression of Bcl-XL | time-dependent proteolytic cleavage of PARP | 76.87 | 9.89
